As a reminder, the Kd is the concentration at which binding is half-saturated. Read a low Kd as tighter binding.

In PMC7332671 (Acta Pharmaceutica Sinica. B, 2020) one finds Kd data, which are given here for 4 molecules.

Where two headings read alike, the source gives them in different places.

Common to all, as to experiment: SPR
What all share (assay type): binding

For experiment [1], the target named is T1, P53 (Homo sapiens, UniProt P04637).
In experiment [2] the target is T1, P53. The source holds these as a separate data set.
Experiment [3] addresses T1, P53. This is another data set of the same source.

T1 sequence (P04637 94-312): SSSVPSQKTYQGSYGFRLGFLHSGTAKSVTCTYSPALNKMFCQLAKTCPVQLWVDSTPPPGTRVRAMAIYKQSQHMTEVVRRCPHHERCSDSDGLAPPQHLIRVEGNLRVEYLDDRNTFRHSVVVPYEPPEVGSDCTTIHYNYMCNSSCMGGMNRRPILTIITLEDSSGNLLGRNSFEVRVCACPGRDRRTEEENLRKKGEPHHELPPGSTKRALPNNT

Regarding 20(S)-Ro, the Kd on P53 [1] was 10.2 µM. Consider `CC(C)=CCC[C@](C)(O)[C@H]1CC[C@]2(C)[C@@H]1[C@H](O)C[C@@H]1[C@@]3(C)CC[C@H](O)C(C)(C)[C@@H]3CC[C@]12C` [20(S)-PPD], for which the Kd at P53 [1] came to 41.1 µM.

Consider `CC(C)=CCC[C@](C)(O)[C@H]1CC[C@]2(C)[C@@H]1[C@H](O)C[C@@H]1[C@@]3(C)CC[C@H](O)C(C)(C)[C@@H]3[C@@H](O)C[C@]12C` [(S)-PPT, 20(S)-Protopanaxatriol], for which binding on P53 [2] was characterised by a dissociation constant (Kd) of 6.63 µM. In turn, `CCn1c2ccccc2c2cc(CNC)ccc21` [PhiKan083] returned a Kd at P53 [3] of 122 µM.
